The numbers were not newly measured in patent US20210368800A1, “Quickly, easily, and economically creating and maintaining a low bio-load on surfaces that may be large and/or of complex contour and finish” (priority 2020, published 2021), which cites them from elsewhere.

For one data set, the system named is norovirus. Particulars: at 50 ppm; electrolytically generated hypochlorous acid.

On to `OCl` [hypochlorous acid, Hypochlorous Acid], for which the “effective in eliminating coronavirus 0C43” value in the data set with coronavirus 0C43 is recorded as “more than 99.999%”. For the same compound, in the data set on norovirus, the “time to kill norovirus” value is given as “less than one”.
